row,Compound,melting point
1,"COc1ccccc1-c1cc(-c2ccc(/C=C3\SC(=O)NC3=O)cc2)cc2c1OCO2 [Compound 4, 4-[3-(2-Methoxyphenyl)-4,5-methylenedioxyphenyl]-benzylidene-2,4-thiazolidinedione]",227 to 228 °C (dec.)
2,"COc1ccc(-c2ccc(/C=C3\SC(=S)NC3=O)cc2)cc1C12CC3CC(CC(C3)C1)C2 [Compound 6, 4-[3-(1-Adamantyl)-4-methoxyphenyl]-benzylidene-2-thioxo-4-thiazolidinedione]",313 to 317 °C
3,"O=C1NC(=O)/C(=C/c2ccc(-c3ccc(O)c(C45CC6CC(CC(C6)C4)C5)c3)cc2)S1 [Compound 7, 4-[3-(1-Adamantyl)-4-hydroxyphenyl]benzylidene-2,4-thiazolidinedione]",307 to 308.5 °C
4,"COc1ccc(-c2ccc3cc(CC4SC(=O)NC4=O)ccc3c2)cc1C12CC3CC(CC(C3)C1)C2 (stereo not shown) [Compound 9, 6-[3-(1-Adamantyl)-4-methoxyphenyl]-naphthalen-2-yl-methyl-2,4-thiazolidinedione]",251 to 253 °C
5,"COCOc1ccc(-c2ccc(/C=C3\SC(=O)NC3=O)cc2)cc1C12CC3CC(CC(C3)C1)C2 [Compound 10, 4-[3-(1-Adamantyl)-4-methoxymethoxyphenyl]-benzylidene-2,4-thiazolidinedione]",253 to 254.5 °C
6,"O=C1NC(=O)C(Cc2ccc3cc(-c4ccc(O)c(C56CC7CC(CC(C7)C5)C6)c4)ccc3c2)S1 (stereo not shown) [Compound 16, 6-[3-(1-Adamantyl)-4-hydroxyphenyl]-naphthalen-2-yl-methyl-2,4-thiazolidinedione]",270.5 to 272 °C
7,"COc1ccc(-c2ccc3cc(C4SC(=O)NC4=O)ccc3c2)cc1C12CC3CC(CC(C3)C1)C2 (stereo not shown) [Compound 23, 5-[6-(3-[1-Adamantyl]-4-methoxyphenyl)-naphthalen-2-yl]-2,4-thiazolidinedione]",205 to 207 °C
8,"O=C1NC(=O)C(c2ccc3cc(-c4ccc(O)c(C56CC7CC(CC(C7)C5)C6)c4)ccc3c2)S1 (stereo not shown) [Compound 24, 5-[6-(3-[1-Adamantyl]-4-hydroxyphenyl)-naphthalen-2-yl]-2,4-thiazolidinedione]",312 to 314.5 °C
9,O=C1NC(=O)/C(=C/c2ccc(-c3ccc(O)c(C45CC6CC(CC(C6)C4)C5)c3)nc2)S1 [Compound 33],315 to 318 °C
10,"O=C1NC(=O)/C(=C/c2ccc(-c3cc(F)c(O)c(C45CC6CC(CC(C6)C4)C5)c3)cc2)S1 [Compound 34, 4-[3-(1-Adamantyl)-4-hydroxy-5-fluoro-phenyl]benzylidene-2,4-thiazolidinedione]",305 to 308 °C
11,"O=C1NC(=O)/C(=C/c2ccc(-c3ccc(O)c(C45CC6CC(CC(C6)C4)C5)c3)c(O)c2)S1 [Compound 35, 4-[3-(1-Adamantyl)-4-hydroxy-phenyl]-5-hydroxybenzylidene-2,4-thiazolidinedione]",224 to 226 °C
12,"Cc1cc(O)c(C23CC4CC(CC(C4)C2)C3)cc1-c1ccc(/C=C2\SC(=O)NC2=O)cc1 [Compound 36, 4-[3-(1-Adamantyl)-4-hydroxy-6-methyl-phenyl]benzylidene-2,4-thiazolidinedione]",275 to 280 °C
13,O=C1NC(=O)/C(=C/c2ccc(-c3cc(F)c(O)c(C45CC6CC(CC(C6)C4)C5)c3)nc2)S1 [Compound 37],307 to 310 °C
14,"O=C1NC(=O)/C(=C/c2ccc(-c3cc(Cl)c(O)c(C45CC6CC(CC(C6)C4)C5)c3)cc2)S1 [Compound 38, 4-[3-(1-Adamantyl)-4-hydroxy-5-chloro-phenyl]benzylidene-2,4-thiazolidinedione]",323 to 328 °C
15,"CC(C)(C)c1cc(-c2ccc(/C=C3\SC(=O)NC3=O)cc2)ccc1O [Compound 39, 4-[3-(t-Butyl)-4-hydroxy-phenyl]benzylidene-2,4-thiazolidinedione]",256 to 257 °C
16,CC(C)(C)c1cc(-c2ccc(/C=C3\SC(=O)NC3=O)cn2)ccc1O [Compound 40],303 to 304 °C

row,Compound,melting point
1,"O=C1NC(=O)/C(=C/c2ccc(-c3ccc(O)c(C45CC6CC(CC(C6)C4)C5)c3)c(F)c2)S1 [Compound 41, 4-[3-(1-Adamantyl)-4-hydroxy-phenyl]-5-fluorobenzylidene-2,4-thiazolidinedione]",270 to 274 °C
2,"O=C1NC(=O)/C(=C/c2ccc(-c3ccc(O)c(C45CC6CC(CC(C6)C4)C5)c3)cc2F)S1 [Compound 42, 4-[3-(1-Adamantyl)-4-hydroxy-phenyl]-6-fluorobenzylidene-2,4-thiazolidinedione]",307 to 309 °C
3,O=C1NC(=O)/C(=C/c2ccc(-c3cc(Cl)c(O)c(C45CC6CC(CC(C6)C4)C5)c3)nc2)S1 [Compound 43],339 to 342 °C
4,COc1cc(-c2ccc(/C=C3\SC(=O)NC3=O)cn2)cc(C23CC4CC(CC(C4)C2)C3)c1O [Compound 44],211 to 216 °C
5,"O=C1NC(=O)/C(=C/c2ccc(-c3ccc(O)c(C45CC6CC(CC(C6)C4)C5)c3)c(OC(F)(F)F)c2)S1 [Compound 46, 4-[3-(1-Adamantyl)-4-hydroxy-phenyl]-5-triflouromethoxybenzylidene-2,4-thiazolidinedione]",238 to 240 °C
6,CC1(c2cc(-c3ccc(/C=C4\SC(=O)NC4=O)cn3)ccc2O)CCCCC1 [Compound 47],293 to 295 °C
7,"O=C1NC(=O)/C(=C/c2ccc(-c3ccc(O)c(C45CC6CC(CC(C6)C4)C5)c3)c(Cl)c2)S1 [Compound 48, 4-[3-(1-Adamantyl)-4-hydroxy-phenyl]-5-chlorobenzylidene-2,4thiazolidinedione]",> 280 °C (dec.)
8,"Cc1cc(/C=C2\SC(=O)NC2=O)ccc1-c1ccc(O)c(C23CC4CC(CC(C4)C2)C3)c1 [Compound 48, 4-[3-(1-Adamantyl)-4-hydroxy-phenyl]-5-methylbenzylidene-2,4-thiazolidinedione]",> 305 °C (dec.)
9,"CCOc1cc(/C=C2\SC(=O)NC2=O)ccc1-c1ccc(O)c(C23CC4CC(CC(C4)C2)C3)c1 [Compound 49, 4-[3-(1-Adamantyl)-4-hydroxy-phenyl]-5-ethoxybenzylidene-2,4-thiazolidinedione]",298 to 302 °C
10,"O=C1NC(=O)/C(=C/c2ccc(-c3ccc(O)c(C45CC6CC(CC(C6)C4)C5)c3)c([N+](=O)[O-])c2)S1 [Compound 50, 4-[3-(1-Adamantyl)-4-hydroxy-phenyl]-5-nitrobenzylidene-2,4-thiazolidinedione]",262 to 264 °C
11,"Nc1cc(/C=C2\SC(=O)NC2=O)ccc1-c1ccc(O)c(C23CC4CC(CC(C4)C2)C3)c1 [Compound 51, 4-[3-(1-Adamantyl)-4-hydroxy-phenyl]-5-aminobenzylidene-2,4-thiazolidinedione]",167 to 169 °C
12,"CC(c1ccc(-c2ccc(O)c(C34CC5CC(CC(C5)C3)C4)c2)nc1)C1SC(=O)NC1=O (stereo not shown) [Compound 52, {1-[6-(3-Adamantan-1-yl-4-hydroxy-phenyl)-pyridin-3-yl]-ethyl}-thiazolidine-2,4-dione]",169 to 171 °C
13,O=C1NC(=O)/C(=C/c2ccc(-c3cc([N+](=O)[O-])c(O)c(C45CC6CC(CC(C6)C4)C5)c3)nc2)S1 [Compound 53],291 to 293 °C
14,"C/C(=C1/SC(=O)NC1=O)c1ccc(-c2ccc(O)c(C34CC5CC(CC(C5)C3)C4)c2)nc1 [Compound 54, (Z)-{1-[6-(3-Adamantan-1-yl-4-hydroxy-phenyl)-pyridin-3-yl]-ethylidene}-thiazolidine-2,4-dione]",181 to 182 °C
15,"C/C(=C1\SC(=O)NC1=O)c1ccc(-c2ccc(O)c(C34CC5CC(CC(C5)C3)C4)c2)nc1 [Compound 55, (E)-{1-[6-(3-Adamantan-1-yl-4-hydroxy-phenyl)-pyridin-3-yl]-ethylidene}-thiazolidine-2,4-dione]",224 to 225 °C

# Source: patent publication US7153875B2, “Heterocyclic derivatives for the treatment of cancer and other proliferative diseases” (Incyte San Diego, priority 2001, dated 2006)
